The values below are quoted from earlier work in US11279710B2, “Processes for preparing ACC inhibitors and solid forms thereof” (Gilead Sciences, Inc., priority 2017, dated 2022).

The test system of one data set is ACC1. Particulars: ACC1 isolated from rat, mouse, monkey and human.
For a further data set, the target named is T1, pyruvate carboxylase (Homo sapiens, UniProt P11498).
T1 sequence (P11498 21-1178): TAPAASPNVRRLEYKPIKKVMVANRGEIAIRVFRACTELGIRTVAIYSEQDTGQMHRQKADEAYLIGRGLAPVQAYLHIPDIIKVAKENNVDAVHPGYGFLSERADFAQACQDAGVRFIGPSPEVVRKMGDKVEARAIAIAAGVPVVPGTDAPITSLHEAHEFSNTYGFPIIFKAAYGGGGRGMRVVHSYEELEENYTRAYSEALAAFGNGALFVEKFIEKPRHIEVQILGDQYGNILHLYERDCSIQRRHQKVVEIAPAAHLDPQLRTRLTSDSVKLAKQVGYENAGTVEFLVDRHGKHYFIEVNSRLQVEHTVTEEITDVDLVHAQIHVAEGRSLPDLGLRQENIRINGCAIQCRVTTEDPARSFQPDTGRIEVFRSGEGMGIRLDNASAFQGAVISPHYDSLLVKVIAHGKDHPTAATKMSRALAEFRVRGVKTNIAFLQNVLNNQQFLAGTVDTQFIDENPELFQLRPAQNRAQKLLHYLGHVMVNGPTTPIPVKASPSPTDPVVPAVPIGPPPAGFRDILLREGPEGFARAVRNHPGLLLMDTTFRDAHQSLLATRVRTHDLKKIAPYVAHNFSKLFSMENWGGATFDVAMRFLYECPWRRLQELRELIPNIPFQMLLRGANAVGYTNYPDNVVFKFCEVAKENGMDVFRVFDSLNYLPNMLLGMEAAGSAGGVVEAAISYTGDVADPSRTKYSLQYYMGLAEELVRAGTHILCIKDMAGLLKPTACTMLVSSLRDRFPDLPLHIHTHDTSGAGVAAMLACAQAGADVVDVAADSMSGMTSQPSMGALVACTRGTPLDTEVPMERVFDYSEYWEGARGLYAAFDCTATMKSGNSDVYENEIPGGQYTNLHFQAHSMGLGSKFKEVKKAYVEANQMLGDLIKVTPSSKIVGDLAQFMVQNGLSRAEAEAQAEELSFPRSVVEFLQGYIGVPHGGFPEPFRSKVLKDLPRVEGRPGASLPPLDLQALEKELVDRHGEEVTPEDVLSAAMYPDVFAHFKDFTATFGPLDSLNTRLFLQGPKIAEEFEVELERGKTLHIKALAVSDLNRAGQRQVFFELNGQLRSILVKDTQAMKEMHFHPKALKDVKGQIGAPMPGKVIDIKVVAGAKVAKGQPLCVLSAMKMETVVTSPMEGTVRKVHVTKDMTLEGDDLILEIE

For data set [1] the following is noted: sucrose-fed rats, three weeks.
Data set [2] relates to insulin-resistant rat muscle tissue. Particulars: within 30 min of compound administration.
Another data set has as its system ACC2. As to conditions: ACC2 isolated from rat, mouse, monkey and human.
The conditions of data set [3]: rats, acute (46 min) treatment.
In data set [4] the target is T2, propionyl-CoA carboxylase (Homo sapiens, UniProt P05165+P05166).
T2 sequence (P05165 53-728): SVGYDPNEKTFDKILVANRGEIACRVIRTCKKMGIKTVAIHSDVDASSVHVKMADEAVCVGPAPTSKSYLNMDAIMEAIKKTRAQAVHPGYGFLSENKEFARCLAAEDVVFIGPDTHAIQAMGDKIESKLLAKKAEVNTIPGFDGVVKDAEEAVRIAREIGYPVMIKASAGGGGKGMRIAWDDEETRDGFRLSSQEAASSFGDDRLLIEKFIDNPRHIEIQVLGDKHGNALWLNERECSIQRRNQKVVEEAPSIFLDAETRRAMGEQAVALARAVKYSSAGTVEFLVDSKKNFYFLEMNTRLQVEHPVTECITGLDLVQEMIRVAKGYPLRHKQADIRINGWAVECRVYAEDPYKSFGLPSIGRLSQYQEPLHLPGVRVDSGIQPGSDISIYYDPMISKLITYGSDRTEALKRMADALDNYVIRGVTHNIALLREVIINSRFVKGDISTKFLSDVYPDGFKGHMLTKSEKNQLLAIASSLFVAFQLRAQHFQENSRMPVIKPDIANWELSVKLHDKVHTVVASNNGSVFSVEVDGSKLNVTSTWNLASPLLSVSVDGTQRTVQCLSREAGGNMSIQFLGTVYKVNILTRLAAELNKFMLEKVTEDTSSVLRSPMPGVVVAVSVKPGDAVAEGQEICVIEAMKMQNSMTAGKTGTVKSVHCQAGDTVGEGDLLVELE
T2 sequence (P05166 29-539): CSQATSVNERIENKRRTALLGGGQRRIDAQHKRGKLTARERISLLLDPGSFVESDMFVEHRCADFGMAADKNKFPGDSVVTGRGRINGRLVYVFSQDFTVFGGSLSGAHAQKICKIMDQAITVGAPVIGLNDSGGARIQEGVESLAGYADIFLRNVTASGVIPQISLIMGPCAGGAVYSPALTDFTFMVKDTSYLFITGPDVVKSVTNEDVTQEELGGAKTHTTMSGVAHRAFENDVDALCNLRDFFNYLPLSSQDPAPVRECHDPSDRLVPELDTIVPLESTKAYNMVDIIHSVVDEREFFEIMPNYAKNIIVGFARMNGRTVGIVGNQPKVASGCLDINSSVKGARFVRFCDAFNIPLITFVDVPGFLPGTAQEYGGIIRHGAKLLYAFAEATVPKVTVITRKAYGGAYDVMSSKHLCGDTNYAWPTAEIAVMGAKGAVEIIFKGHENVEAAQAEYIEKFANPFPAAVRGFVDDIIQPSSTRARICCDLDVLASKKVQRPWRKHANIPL

As a reminder, the IC50 is the concentration that gives 50% inhibition. As for `O=C(c1c2ccccc2cc2ccccc12)N1CCC(N2CCC[C@@H](C(=O)N3CCOCC3)C2)CC1` [CP-640186], the FA oxidation entry in the data set on rat muscle slices is listed as “stimulated”. Besides, the FA oxidation result in the data set on C2C12 cells is “stimulated”. The half-inhibitory concentration (IC50) in the data set on ACC1 was about 60 nM. Moreover, the “inhibition of pyruvate carboxylase” value at pyruvate carboxylase was “without inhibiting”. Also, in data set [1], the “hyperinsulinemia produced by the high sucrose diet” value is “reduced”, the insulin sensitivity entry was “improved”, the lean body mass entry is “without reducing” and the leptin levels entry is “reduced”. Also, in data set [1], the “liver, muscle and adipose triglycerides” value is “time- and dose-dependently reduced”; the plasma glucose levels result is reported as “without changing”. Besides, the body weight result in [1] (due to selective fat reduction) is listed as “reduced”. Also, the insulin sensitivity entry in data set [2] was “stimulation”. Further, the IC50 in the data set on ACC2 is about 60 nM. Also, where the note is “experimental animals”, the “liver and adipose tissue FA synthesis” value is listed as “reduced”; the “whole body FA oxidation” value is “increased”. The malonyl-CoA concentration entry (lipogenic and oxidative tissues, fed and fasted state) is “acutely reduced”. Besides, in data set [3], the FA clearance entry is “stimulated” and the glucose clearance result is recorded as “without decreasing”. In the data set on Hep-G2 cells, the CPT-I activity entry is listed as “increased”, the FA synthesis result is given as “reduced”, the apoA1 secretion entry is on record as “without affecting” and the apoB secretion result is on record as “reduced”. Moreover, in the data set with Hep-G2 cells, the cholesterol synthesis entry was “without affecting”; the “triglyceride synthesis and secretion” value is reported as “reduced”. Besides, in [4], the “inhibition of propionyl-CoA carboxylase” value is “without inhibiting”.

For `COc1ccccc1[C@H](Cn1c(=O)n(C(C)(C)C(=O)O)c(=O)c2c(C)c(-c3ncco3)sc21)OC1CCOCC1` [Compound I, (R)-2-(1-(2-(2-methoxyphenyl)-2-((tetrahydro-2H-pyran-4-yl)oxy)ethyl)-5-methyl-6-(oxazol-2-yl)-2,4-dioxo-1,2-dihydrothieno[2,3-d]pyrimidin-3(4H)-yl)-2-methylpropanoic acid], in the data set with ACC, the ACC inhibitory activity result is “exhibits ACC inhibitory activity”.

With `CO[C@H]1CCCC[C@@H](c2ccccc2)OC(=O)[C@@H](C)[C@@]2(O)O[C@H]([C@@H](C)[C@H](O)[C@H]2OC)[C@@H](C)/C=C/[C@H]1OC` [soraphen A], in the data set with human liposarcoma, the lipogenesis result is “inhibited” and the tumor cell growth entry was “inhibited”.
